Patent US20110142848A1, “ANTI-BETA-2-MICROGLOBULIN AGENTS AND THE USE THEREOF” (priority 2008, published 2011)

Experiments:
C4-2B (KD) cells = experiment: MTS cell proliferation assay, C4-2B (KD); format: cell-based, human; details: C4-2B (KD) versus neo-control
Procedure: For example, six thousand (6,000) cells per well may be plated in 96 well plates, which may be cultured in 1% DCC-FBS (dextran-coated, charcoal-treated fetal bovine serum) containing T medium (C4-2B) or serum-free T medium (PC3) with 5% CO2 at 37° C. overnight. Cells may then be treated with anti-β2-M mAbs for 48 h. […] Two to four days post-treatment, cell growth may be determined by MTS assay using the CellTiter96 Aqueous One Solution Cell Proliferation Assay (Promega) according to the manufacturer's instructions.

neo-control cells = experiment: MTS cell proliferation assay, neo-control cells; format: cell-based, human
Procedure: For example, six thousand (6,000) cells per well may be plated in 96 well plates, which may be cultured in 1% DCC-FBS (dextran-coated, charcoal-treated fetal bovine serum) containing T medium (C4-2B) or serum-free T medium (PC3) with 5% CO2 at 37° C. overnight. Cells may then be treated with anti-β2-M mAbs for 48 h. Chemotherapeutic agents, such as PS-341, gemcitabine, cisplatin, doxorubicin, taxotere, or 17-AAG, may then be added to the culture media. Two to four days post-treatment, cell growth may be determined by MTS assay using the CellTiter96 Aqueous One Solution Cell Proliferation Assay (Promega) according to the manufacturer's instructions. Results from these experiments are shown in FIGS. 7-21, with various chemotherapeutic agents.

Structure (SMILES) | sensitivity to growth inhibition, β2-M knockdown cells compared with neo-control cells (C4-2B (KD) cells) | growth inhibition by agent alone (neo-control cells; gemcitabine at lower doses (10 μM or lower)) | growth inhibition by agent alone (neo-control cells; PS-341 at concentrations of 1 (AM or higher))
CC(=O)O[C@@]12CO[C@@H]1C[C@H](O)[C@@]1(C)C(=O)[C@H](O)C3=C(C)[C@@H](OC(=O)[C@H](O)[C@@H](NC(=O)OC(C)(C)C)c4ccccc4)C[C@@](O)([C@@H](OC(=O)c4ccccc4)[C@H]21)C3(C)C [taxotere] | more sensitive |  | 
N.N.[Cl][Pt][Cl] [cisplatin] | more sensitive |  | 
Nc1ccn([C@@H]2O[C@H](CO)[C@@H](O)C2(F)F)c(=O)n1 [gemcitabine] | more sensitive | not particularly effective | 
CC(C)C[C@H](NC(=O)[C@H](Cc1ccccc1)NC(=O)c1cnccn1)B(O)O [PS-341, bortezomib] | more sensitive |  | effective by itself
